For 1 molecule, IC50 and Activity results are on record in ChEMBL document CHEMBL5120855, “Potent 2,3-dihydrophthalazine-1,4-dione derivatives as dual inhibitors for mono-ADP-ribosyltransferases PARP10 and PARP15” (Eur J Med Chem, 2022).

Data set [1] addresses T1, Protein mono-ADP-ribosyltransferase PARP10 (Homo sapiens, UniProt Q53GL7).
T1 sequence (Q53GL7 whole entry): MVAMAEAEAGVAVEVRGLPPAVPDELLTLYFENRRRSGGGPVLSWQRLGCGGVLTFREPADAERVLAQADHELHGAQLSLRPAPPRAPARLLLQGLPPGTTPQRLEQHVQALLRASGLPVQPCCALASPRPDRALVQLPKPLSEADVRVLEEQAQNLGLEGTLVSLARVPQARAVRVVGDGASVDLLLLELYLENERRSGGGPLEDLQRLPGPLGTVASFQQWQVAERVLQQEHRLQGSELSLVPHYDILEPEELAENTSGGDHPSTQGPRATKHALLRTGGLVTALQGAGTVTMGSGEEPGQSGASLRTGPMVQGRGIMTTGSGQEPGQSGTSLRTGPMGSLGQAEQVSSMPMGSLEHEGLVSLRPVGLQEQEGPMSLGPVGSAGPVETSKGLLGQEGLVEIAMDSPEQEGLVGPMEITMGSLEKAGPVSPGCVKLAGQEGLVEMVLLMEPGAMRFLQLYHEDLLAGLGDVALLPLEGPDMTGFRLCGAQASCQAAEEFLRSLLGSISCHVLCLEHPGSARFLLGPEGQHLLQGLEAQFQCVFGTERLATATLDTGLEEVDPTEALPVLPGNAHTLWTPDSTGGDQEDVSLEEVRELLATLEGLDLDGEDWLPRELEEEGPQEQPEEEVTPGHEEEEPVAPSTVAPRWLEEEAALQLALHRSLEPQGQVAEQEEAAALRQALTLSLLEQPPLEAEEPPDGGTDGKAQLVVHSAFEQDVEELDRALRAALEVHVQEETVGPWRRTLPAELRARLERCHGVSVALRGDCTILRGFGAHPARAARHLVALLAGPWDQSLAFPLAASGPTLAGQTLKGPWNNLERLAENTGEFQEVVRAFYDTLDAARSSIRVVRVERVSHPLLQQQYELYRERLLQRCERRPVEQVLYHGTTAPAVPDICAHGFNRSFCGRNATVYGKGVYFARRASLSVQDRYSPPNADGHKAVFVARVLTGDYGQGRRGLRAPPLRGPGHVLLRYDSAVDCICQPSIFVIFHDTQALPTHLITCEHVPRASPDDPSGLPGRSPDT
Kind of data set: Inhibition of human PARP-10 using NAD+ as substrate incubated for 10 mins by fluorescence based analysis.

In data set [2] the target is Protein mono-ADP-ribosyltransferase PARP4 (Homo sapiens, UniProt Q9UKK3). Kind of data set: Inhibition of human PARP4.
The target in data set [3] is T2, Protein mono-ADP-ribosyltransferase PARP16 (Homo sapiens, UniProt Q8N5Y8).
T2 sequence (Q8N5Y8 whole entry): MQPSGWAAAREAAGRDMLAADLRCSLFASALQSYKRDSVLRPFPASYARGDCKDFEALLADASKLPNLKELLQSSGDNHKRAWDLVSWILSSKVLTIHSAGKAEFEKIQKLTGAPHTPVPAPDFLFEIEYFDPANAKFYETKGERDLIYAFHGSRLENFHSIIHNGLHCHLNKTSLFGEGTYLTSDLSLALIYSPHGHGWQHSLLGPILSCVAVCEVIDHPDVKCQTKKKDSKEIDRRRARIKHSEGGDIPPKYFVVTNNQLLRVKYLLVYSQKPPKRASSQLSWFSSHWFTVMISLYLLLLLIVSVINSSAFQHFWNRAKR
Kind of data set: Inhibition of human PARP16.

A further data set has as its system HEK-293T. Kind of data set: Cytotoxicity against HEK293T cells assessed as reduction in cell viability at 10 uM measured after 24 hrs by WST-1 assay. Format: toxicity, cell-based. The settings on record: human. On the technique in general: Formazan colour is commonly taken as a measure of viable cells.

Some results are limits rather than exact numbers.

Protein mono-ADP-ribosyltransferase PARP4, sequence (Q9UKK3 whole entry): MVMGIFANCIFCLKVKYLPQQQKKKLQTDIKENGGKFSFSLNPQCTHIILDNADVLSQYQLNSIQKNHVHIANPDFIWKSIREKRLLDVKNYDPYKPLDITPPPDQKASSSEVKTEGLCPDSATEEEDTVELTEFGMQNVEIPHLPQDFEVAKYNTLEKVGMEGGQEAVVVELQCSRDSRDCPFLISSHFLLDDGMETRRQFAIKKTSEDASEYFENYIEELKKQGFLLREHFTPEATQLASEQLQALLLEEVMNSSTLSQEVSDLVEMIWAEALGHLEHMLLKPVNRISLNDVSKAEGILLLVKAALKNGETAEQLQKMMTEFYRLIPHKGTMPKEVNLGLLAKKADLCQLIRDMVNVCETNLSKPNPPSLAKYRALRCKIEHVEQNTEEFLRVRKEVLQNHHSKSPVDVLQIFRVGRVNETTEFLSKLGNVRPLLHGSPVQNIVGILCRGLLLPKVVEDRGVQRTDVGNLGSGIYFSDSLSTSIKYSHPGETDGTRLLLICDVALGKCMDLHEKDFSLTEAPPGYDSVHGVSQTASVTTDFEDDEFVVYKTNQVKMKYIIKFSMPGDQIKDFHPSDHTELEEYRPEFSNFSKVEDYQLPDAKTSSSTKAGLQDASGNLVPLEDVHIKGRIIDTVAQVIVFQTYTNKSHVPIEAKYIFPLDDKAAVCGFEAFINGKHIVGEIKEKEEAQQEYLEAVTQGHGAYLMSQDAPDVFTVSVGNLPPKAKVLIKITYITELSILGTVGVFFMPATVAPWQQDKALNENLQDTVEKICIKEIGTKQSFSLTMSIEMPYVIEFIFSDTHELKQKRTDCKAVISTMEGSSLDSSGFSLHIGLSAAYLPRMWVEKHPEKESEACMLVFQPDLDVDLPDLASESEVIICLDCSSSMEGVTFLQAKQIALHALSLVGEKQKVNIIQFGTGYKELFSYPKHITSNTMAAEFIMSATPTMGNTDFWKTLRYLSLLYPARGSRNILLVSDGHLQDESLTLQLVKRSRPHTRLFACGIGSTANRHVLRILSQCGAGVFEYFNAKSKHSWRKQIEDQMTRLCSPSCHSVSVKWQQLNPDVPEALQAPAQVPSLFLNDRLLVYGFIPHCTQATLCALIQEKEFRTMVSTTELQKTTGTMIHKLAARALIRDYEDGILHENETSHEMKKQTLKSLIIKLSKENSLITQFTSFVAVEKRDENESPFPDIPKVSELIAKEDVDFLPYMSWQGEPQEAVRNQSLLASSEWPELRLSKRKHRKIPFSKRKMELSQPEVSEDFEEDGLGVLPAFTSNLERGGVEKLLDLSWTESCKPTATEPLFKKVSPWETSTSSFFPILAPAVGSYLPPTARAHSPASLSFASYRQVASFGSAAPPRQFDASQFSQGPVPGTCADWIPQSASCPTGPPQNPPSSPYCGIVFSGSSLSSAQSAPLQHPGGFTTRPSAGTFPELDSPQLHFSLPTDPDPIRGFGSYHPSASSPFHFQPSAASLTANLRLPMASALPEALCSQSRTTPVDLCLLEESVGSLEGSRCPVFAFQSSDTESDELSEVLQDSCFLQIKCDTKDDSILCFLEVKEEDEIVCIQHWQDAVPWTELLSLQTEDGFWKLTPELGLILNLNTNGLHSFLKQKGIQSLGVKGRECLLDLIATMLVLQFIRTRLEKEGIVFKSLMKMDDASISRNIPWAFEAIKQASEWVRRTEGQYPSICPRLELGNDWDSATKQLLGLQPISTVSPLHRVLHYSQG

With `NC(=O)c1ccc(OCC2CCC2)cc1`, the IC50 in data set [1] was 0.29 µM; in data set [2] it was greater than 100 µM; in data set [3], greater than 10 µM. For the same molecule, in the data set with HEK-293T, the Activity entry is “Non-Toxic”.

As usually defined, the IC50 is the concentration at which inhibition is half-maximal. Read a high IC50 as a need for much substance.
